From BindingDB's records for doi:10.1016/j.bmcl.2012.06.057 (Sanofi-Aventis Deutschland, 2012) come the findings set out here.

Experiment [1] can be described thus: Antagonist activity at LPA5 receptor in human isolated platelets assessed as inhibition of hexadecyl-LPA-induced platelet aggregation after 3 mins.
A short description of experiment [2]: Antagonist activity at LPA2 receptor in human isolated platelets assessed as inhibition of TRAP-induced platelet aggregation after 3 mins.

Molecules are shown by their SMILES. Where only a bound is given, the exact number is not on record here.

As a reminder, the IC50 is the concentration at which inhibition is half-maximal. Take `Cc1noc(-c2ccc(CSCCC(=O)O)cc2)c1NC(=O)OC(C)c1ccccc1Cl` (centres undefined) [3-(4-(4-((1-(2-chlorophenyl)ethoxy)carbonylamino)-3-methylisoxazol-5-yl)benzylthio)propanoic acid]: in experiment [1], the IC50 was above 30 µM.
With `COc1cccc(-n2nc(C(=O)O)cc2-c2ccc(C3CCCCC3)c(Cl)c2)c1`, the IC50 in experiment [2] was above 10 µM; in experiment [1], 2.2 µM.
In the case of `Cc1csc2c(N[C@@H](C)CN3CCN(S(=O)(=O)c4ccc(Cl)c(Cl)c4)CC3)ncnc12`, the IC50 in experiment [1] is above 30 µM.
